The supplement of paper PMC10307832

How the values were obtained:
Test in all cases: relative viability (nuclei count vs DMSO), 5 days (fraction); higher = more cells survive
[1] = system: NCI-H441
Summary of the method: (§1)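 For relative viability, nuclei counts in treated wells were divided by those in vehicle wells. Lung cancer cell lines had been pin-tool dosed in 1536-well plates the day after seeding and cultured for 5 days, then fixed and stained in one step (final 0.05% Triton X-100, 1% formaldehyde, 1 ug/ml Hoechst) and imaged at 4×. Doses were one drug alone or a fixed anchor-drug dose plus five library-drug doses (not always all listed) in √10 steps, and values are duplicate-plate medians.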

[2] = system: SW 1573
Summary of the method: as §1

[3] = system: NCI-H1793
Summary of the method: as §1

[4] = system: LC-2-ad
Summary of the method: as §1

[5] = system: NCI-H1734
Summary of the method: as §1

[6] = system: NCI-H838
Summary of the method: as §1

[7] = system: EPLC-272H
Summary of the method: as §1

[8] = system: NCI-H647
Summary of the method: as §1

[9] = system: NCI-H1915
Summary of the method: as §1

[10] = system: HCC-15
Summary of the method: as §1

[11] = system: UMC-11
Summary of the method: as §1

[12] = system: NCI-H2009
Summary of the method: as §1

[13] = system: A-427
Summary of the method: as §1

[14] = system: NCI-H322M
Summary of the method: as §1

[15] = system: NCI-H2023
Summary of the method: as §1

[16] = system: NCI-H2347
Summary of the method: as §1

[17] = system: NCI-H1944
Summary of the method: as §1

[18] = system: RERF-LC-KJ
Summary of the method: as §1

[19] = system: LK-2
Summary of the method: as §1

## CCNC(=O)c1noc(-c2cc(C(C)C)c(O)cc2O)c1-c1ccc(CN2CCOCC2)cc1 [Luminespib] + CC1(C)CCC(c2ccc(Cl)cc2)=C(CN2CCN(c3ccc(C(=O)NS(=O)(=O)c4ccc(N[C@H](CCN5CCOCC5)CSc5ccccc5)c(S(=O)(=O)C(F)(F)F)c4)cc3)CC2)C1 [Navitoclax] (partner 0.5 µM)
[1]; first compound 0.002 µM
  relative viability: 0.714
[1]; first compound 0.006325 µM
  relative viability: 0.648
[1]; first compound 0.02 µM
  relative viability: 0.626
[1]; first compound 0.06325 µM
  relative viability: 0.121
[1]; first compound 0.2 µM
  relative viability: 0.161
[2]; first compound 0.002 µM
  relative viability: 0.927
[2]; first compound 0.006325 µM
  relative viability: 0.892
[2]; first compound 0.02 µM
  relative viability: 0.803
[2]; first compound 0.06325 µM
  relative viability: 0.0809
[2]; first compound 0.2 µM
  relative viability: 0.0666
[3]; first compound 0.002 µM
  relative viability: 0.517
[3]; first compound 0.006325 µM
  relative viability: 0.374
[3]; first compound 0.02 µM
  relative viability: 0.293
[3]; first compound 0.06325 µM
  relative viability: 0.137
[3]; first compound 0.2 µM
  relative viability: 0.122
[4]; first compound 0.002 µM
  relative viability: 0.41
[4]; first compound 0.006325 µM
  relative viability: 0.483
[4]; first compound 0.02 µM
  relative viability: 0.516
[4]; first compound 0.06325 µM
  relative viability: 0.0848
[4]; first compound 0.2 µM
  relative viability: 0.126
[5]; first compound 0.002 µM
  relative viability: 0.878
[5]; first compound 0.006325 µM
  relative viability: 0.698
[5]; first compound 0.02 µM
  relative viability: 0.777
[5]; first compound 0.06325 µM
  relative viability: 0.172
[5]; first compound 0.2 µM
  relative viability: 0.122
[6]; first compound 0.002 µM
  relative viability: 1.3
[6]; first compound 0.006325 µM
  relative viability: 1.12
[6]; first compound 0.02 µM
  relative viability: 1.07
[6]; first compound 0.06325 µM
  relative viability: 0.18
[6]; first compound 0.2 µM
  relative viability: 0.193
[7]; first compound 0.006325 µM
  relative viability: 0.831
[7]; first compound 0.02 µM
  relative viability: 0.782
[7]; first compound 0.06325 µM
  relative viability: 1.11
[7]; first compound 0.2 µM
  relative viability: 1.28
[8]; first compound 0.002 µM
  relative viability: 1.23
[8]; first compound 0.006325 µM
  relative viability: 1.06
[8]; first compound 0.02 µM
  relative viability: 1.18
[8]; first compound 0.06325 µM
  relative viability: 0.0943
[8]; first compound 0.2 µM
  relative viability: 0.0973
[9]; first compound 0.002 µM
  relative viability: 0.8
[9]; first compound 0.006325 µM
  relative viability: 0.793
[9]; first compound 0.02 µM
  relative viability: 0.803
[9]; first compound 0.06325 µM
  relative viability: 0.808
[9]; first compound 0.2 µM
  relative viability: 0.775
[10]; first compound 0.002 µM
  relative viability: 0.647
[10]; first compound 0.006325 µM
  relative viability: 0.708
[10]; first compound 0.02 µM
  relative viability: 0.755
[10]; first compound 0.06325 µM
  relative viability: 0.44
[10]; first compound 0.2 µM
  relative viability: 0.419
[11]; first compound 0.002 µM
  relative viability: 0.305
[11]; first compound 0.006325 µM
  relative viability: 0.349
[11]; first compound 0.02 µM
  relative viability: 0.224
[11]; first compound 0.06325 µM
  relative viability: 0.148
[11]; first compound 0.2 µM
  relative viability: 0.108
[12]; first compound 0.002 µM
  relative viability: 1.17
[12]; first compound 0.006325 µM
  relative viability: 1.08
[12]; first compound 0.02 µM
  relative viability: 1.21
[12]; first compound 0.06325 µM
  relative viability: 0.72
[12]; first compound 0.2 µM
  relative viability: 0.0895
[13]; first compound 0.002 µM
  relative viability: 1.01
[13]; first compound 0.006325 µM
  relative viability: 0.913
[13]; first compound 0.02 µM
  relative viability: 0.497
[13]; first compound 0.06325 µM
  relative viability: 0.99
[13]; first compound 0.2 µM
  relative viability: 1.03
[14]; first compound 0.002 µM
  relative viability: 1.14
[14]; first compound 0.006325 µM
  relative viability: 1.09
[14]; first compound 0.02 µM
  relative viability: 1.02
[14]; first compound 0.06325 µM
  relative viability: 1.16
[14]; first compound 0.2 µM
  relative viability: 1.28
[15]; first compound 0.002 µM
  relative viability: 0.969
[15]; first compound 0.006325 µM
  relative viability: 1.11
[15]; first compound 0.02 µM
  relative viability: 0.99
[15]; first compound 0.06325 µM
  relative viability: 0.0933
[15]; first compound 0.2 µM
  relative viability: 0.0995
[16]; first compound 0.002 µM
  relative viability: 0.794
[16]; first compound 0.02 µM
  relative viability: 0.483
[16]; first compound 0.06325 µM
  relative viability: 0.764
[16]; first compound 0.2 µM
  relative viability: 0.275
[17]; first compound 0.002 µM
  relative viability: 1.06
[17]; first compound 0.006325 µM
  relative viability: 0.99
[17]; first compound 0.02 µM
  relative viability: 0.708
[17]; first compound 0.06325 µM
  relative viability: 0.939
[17]; first compound 0.2 µM
  relative viability: 0.973
[18]; first compound 0.002 µM
  relative viability: 0.987
[18]; first compound 0.006325 µM
  relative viability: 1.11
[18]; first compound 0.02 µM
  relative viability: 1.07
[18]; first compound 0.06325 µM
  relative viability: 0.221
[18]; first compound 0.2 µM
  relative viability: 0.22
[19]; first compound 0.002 µM
  relative viability: 0.826
[19]; first compound 0.006325 µM
  relative viability: 0.936
[19]; first compound 0.02 µM
  relative viability: 0.571
[19]; first compound 0.06325 µM
  relative viability: 0.163
[19]; first compound 0.2 µM
  relative viability: 0.159
